Test results published in ChEMBL document CHEMBL1127584, “Crystal-structure-based design and synthesis of novel C-terminal inhibitors of HIV protease” (J Med Chem, 1994).

molecular target: Human immunodeficiency virus type 1 protease (Human immunodeficiency virus 1, UniProt Q72874); test: Inhibition of recombinant HIV-1 protease

| SMILES | Ki |
| --- | --- |
| C[C@H](N)C(=O)N[C@@H](C)C(=O)N[C@@H](Cc1ccccc1)[C@@H](O)CCC(=O)NC(c1ccccc1)c1cc2ccccc2[nH]1 (some centres undefined) | 200 nM |
| NC(=O)C[C@H](NC(=O)c1ccc2ccccc2n1)C(=O)NC(Cc1ccccc1)[C@@H](O)CCC(=O)NC(c1cccc(C(F)(F)F)c1)c1cc2ccccc2[nH]1 (some centres undefined) | 33 nM |
| NC(=O)C[C@H](NC(=O)c1ccc2ccccc2n1)C(=O)NC(Cc1ccccc1)[C@@H](O)CCC(=O)NC(c1ccccc1)c1cc2ccccc2[nH]1 (some centres undefined) | 43 nM |
| NC(=O)C[C@H](NC(=O)c1ccc2ccccc2n1)C(=O)NC(Cc1ccccc1)[C@@H](O)C[C@@H](Cc1ccccc1)C(=O)NC(c1ccccc1)c1cc2ccccc2[nH]1 (some centres undefined) | 1280 nM |
| NC(=O)C[C@H](NC(=O)c1ccc2ccccc2n1)C(=O)NC(Cc1ccccc1)[C@@H](O)CCC(=O)NC(c1ccccc1)c1nc2ccccc2[nH]1 (some centres undefined) | 480 nM |
| NC(=O)C[C@H](NC(=O)c1ccc2ccccc2n1)C(=O)NC(Cc1ccccc1)[C@@H](O)CCC(=O)NC(c1cc2ccccc2[nH]1)C1CCCCC1 (some centres undefined) | 180 nM |
| COC(=O)[C@@H](CC(=O)[C@@H](NC(=O)CC[C@H](O)[C@H](Cc1ccccc1)NC(=O)[C@H](C)NC[C@H](C)N)C(C)C)C(C)C | 18 nM |
| Cc1cccc(C(NC(=O)CC[C@H](O)C(Cc2ccccc2)NC(=O)[C@H](CC(N)=O)NC(=O)c2ccc3ccccc3n2)c2cc3ccccc3[nH]2)c1 (some centres undefined) | 39 nM |
| CC(C)CC(=O)N[C@H](C(=O)N[C@H](C(=O)N[C@@H](CC(C)C)[C@@H](O)CC(=O)N[C@@H](C)C(=O)N[C@@H](CC(C)C)[C@@H](O)CC(=O)O)C(C)C)C(C)C [PEPSTATIN] | 3100 nM |
